# Laboratory results taken from the supplement of paper PMC8253809.
# How the values were obtained:
# DIPGX29 [1] = H3.3 K27M diffuse intrinsic pontine glioma line; assay: EC50 (inflection of fitted growth-inhibition curve) (log10 M)
# Procedure, shortened: (§1)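 Compounds were delivered by pin tool as a 10-point threefold dilution series with a mean top concentration of 35 μM, in triplicate, to patient-derived pHGG/DIPG cell lines and astrocyte controls growing on 1% Geltrex-coated 384-well plates. Incubation lasted 7 days, or 3 days for iAstro, at 37 °C with 5% CO2. EC50 and maximal response (yFin) come from the three- or four-parameter log-logistic fit with the lowest AICc, applied to pooled, log2-transformed CellTiter-Glo luminescence normalised per plate to % activity between solvent (negative) and positive control wells.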
# DIPGX37 [2] = H3.3 K27M diffuse intrinsic pontine glioma line; assay: as above
# Procedure, shortened: as §1
# DIPGX7 [3] = H3.3 K27M diffuse intrinsic pontine glioma line; assay: as above
# Procedure, shortened: as §1
# HABS [4] = astrocyte control; assay: as above
# Procedure, shortened: as §1
# HGGX2 [5] = paediatric high-grade glioma line; assay: as above
# Procedure, shortened: as §1
# HGGX39 [6] = paediatric high-grade glioma line; assay: as above
# Procedure, shortened: as §1
# HGGX42 [7] = H3.3 G34R paediatric high-grade glioma line; assay: as above
# Procedure, shortened: as §1
# HGGX6 [8] = H3.3 G34R paediatric high-grade glioma line; assay: as above
# Procedure, shortened: as §1
# SUDIPGIV [9] = diffuse intrinsic pontine glioma line; assay: as above
# Procedure, shortened: as §1
# SUDIPGXIII [10] = diffuse intrinsic pontine glioma line; assay: as above
# Procedure, shortened: as §1
# SUDIPGXIX [11] = diffuse intrinsic pontine glioma line; assay: as above
# Procedure, shortened: as §1
# SUDIPGXVII [12] = diffuse intrinsic pontine glioma line; assay: as above
# Procedure, shortened: as §1
# iAstro [13] = astrocyte control; assay: as above
# Procedure, shortened: as §1
# DIPGX29 [14] = assay: maximal growth inhibition (yFin) relative to DMSO / staurosporine; higher = more efficacious
# Procedure, shortened: as §1
# DIPGX37 [15] = assay: as above
# Procedure, shortened: as §1
# DIPGX7 [16] = assay: as above
# Procedure, shortened: as §1
# HABS [17] = assay: as above
# Procedure, shortened: as §1
# HGGX2 [18] = assay: as above
# Procedure, shortened: as §1
# HGGX39 [19] = assay: as above
# Procedure, shortened: as §1
# HGGX42 [20] = assay: as above
# Procedure, shortened: as §1
# HGGX6 [21] = assay: as above
# Procedure, shortened: as §1
# SUDIPGIV [22] = assay: as above
# Procedure, shortened: as §1
# SUDIPGXIII [23] = assay: as above
# Procedure, shortened: as §1
# SUDIPGXIX [24] = assay: as above
# Procedure, shortened: as §1
# SUDIPGXVII [25] = assay: as above
# Procedure, shortened: as §1
# iAstro [26] = assay: as above
# Procedure, shortened: as §1
# DIPGX29 [27] = assay: area under dose-response curve of % growth inhibition (log2 RLU vs DMSO / staurosporine), 1e-11 to 1e-4 M (% x log10 M); higher = more growth inhibition
# Procedure, shortened: (§2)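 Area under the curve was derived with the trapezoid rule from a fitted log-logistic curve, switching to a smoothing spline if the sigmoid fit failed. It rested on per-plate % activity between solvent and positive controls, calculated from log2-transformed CellTiter-Glo luminescence after 7 days of exposure (3 days for iAstro) at 37 °C, 5% CO2. Patient-derived pHGG/DIPG lines and astrocytes on 1% Geltrex-coated 384-well plates received a 10-point threefold dilution series, mean top concentration 35 μM, in triplicate.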
# DIPGX37 [28] = assay: as above
# Procedure, shortened: as §2
# DIPGX7 [29] = assay: as above
# Procedure, shortened: as §2
# DIPGX9 [30] = diffuse intrinsic pontine glioma line; assay: as above
# Procedure, shortened: as §2
# HABS [31] = assay: as above
# Procedure, shortened: as §2
# HGGX2 [32] = assay: as above
# Procedure, shortened: as §2
# HGGX39 [33] = assay: as above
# Procedure, shortened: as §2
# HGGX42 [34] = assay: as above
# Procedure, shortened: as §2
# HGGX6 [35] = assay: as above
# Procedure, shortened: as §2
# SUDIPGIV [36] = assay: as above
# Procedure, shortened: as §2
# SUDIPGVI = diffuse intrinsic pontine glioma line; assay: as above
# Procedure, shortened: as §2
# SUDIPGXIII [37] = assay: as above
# Procedure, shortened: as §2
# SUDIPGXIX [38] = assay: as above
# Procedure, shortened: as §2
# SUDIPGXVII [39] = assay: as above
# Procedure, shortened: as §2
# SUDIPGXXI [40] = diffuse intrinsic pontine glioma line; assay: as above
# Procedure, shortened: as §2
# iAstro [41] = assay: as above
# Procedure, shortened: as §2
# DIPGX9 [42] = assay: EC50 (inflection of fitted growth-inhibition curve) (log10 M)
# Procedure, shortened: as §1
# SUDIPGXXI [43] = assay: as above
# Procedure, shortened: as §1
# DIPGX9 [44] = assay: maximal growth inhibition (yFin) relative to DMSO / staurosporine; higher = more efficacious
# Procedure, shortened: as §1
# SUDIPGXXI [45] = assay: as above
# Procedure, shortened: as §1
smiles,measurement,setting,value
CO[C@H]1C[C@@H]2CC[C@@H](C)[C@@](O)(O2)C(=O)C(=O)N2CCCC[C@H]2C(=O)O[C@H]([C@H](C)C[C@@H]2CC[C@@H](OCCO)[C@H](OC)C2)CC(=O)[C@H](C)/C=C(\C)[C@@H](O)[C@@H](OC)C(=O)[C@H](C)C[C@H](C)/C=C/C=C/C=C/1C [EVEROLIMUS],EC50 (log10 M),DIPGX29 [1],-4.57
same,EC50 (log10 M),DIPGX37 [2],-4.6
same,EC50 (log10 M),DIPGX7 [3],-4.76
same,EC50 (log10 M),HABS [4],-4.63
same,EC50 (log10 M),HGGX2 [5],-4.67
same,EC50 (log10 M),HGGX39 [6],-4.56
same,EC50 (log10 M),HGGX42 [7],-4.78
same,EC50 (log10 M),HGGX6 [8],-4.78
same,EC50 (log10 M),SUDIPGIV [9],-4.85
same,EC50 (log10 M),SUDIPGXIII [10],-4.77
same,EC50 (log10 M),SUDIPGXIX [11],-4.79
same,EC50 (log10 M),SUDIPGXVII [12],-4.83
same,EC50 (log10 M),iAstro [13],-4.83
same,maximal growth inhibition,DIPGX29 [14],107%
same,maximal growth inhibition,DIPGX37 [15],100%
same,maximal growth inhibition,DIPGX7 [16],98.8%
same,maximal growth inhibition,HABS [17],86.6%
same,maximal growth inhibition,HGGX2 [18],94.8%
same,maximal growth inhibition,HGGX39 [19],97.2%
same,maximal growth inhibition,HGGX42 [20],95.7%
same,maximal growth inhibition,HGGX6 [21],50%
same,maximal growth inhibition,SUDIPGIV [22],87.7%
same,maximal growth inhibition,SUDIPGXIII [23],85.2%
same,maximal growth inhibition,SUDIPGXIX [24],90.9%
same,maximal growth inhibition,SUDIPGXVII [25],73.8%
same,maximal growth inhibition,iAstro [26],85%
same,area under dose-response curve,DIPGX29 [27],95.9
same,area under dose-response curve,DIPGX37 [28],103
same,area under dose-response curve,DIPGX7 [29],75.4
same,area under dose-response curve,DIPGX9 [30],149
same,area under dose-response curve,HABS [31],54.8
same,area under dose-response curve,HGGX2 [32],78.5
same,area under dose-response curve,HGGX39 [33],99.1
same,area under dose-response curve,HGGX42 [34],107
same,area under dose-response curve,HGGX6 [35],62.9
same,area under dose-response curve,SUDIPGIV [36],97.4
same,area under dose-response curve,SUDIPGVI,113
same,area under dose-response curve,SUDIPGXIII [37],92.4
same,area under dose-response curve,SUDIPGXIX [38],72
same,area under dose-response curve,SUDIPGXVII [39],74.4
same,area under dose-response curve,SUDIPGXXI [40],203
same,area under dose-response curve,iAstro [41],96.6
Cn1cnc([N+](=O)[O-])c1Sc1ncnc2[nH]cnc12 [AZATHIOPRINE],EC50 (log10 M),DIPGX29 [1],-6.11
same,EC50 (log10 M),DIPGX37 [2],-5.6
same,EC50 (log10 M),DIPGX7 [3],-5.08
same,EC50 (log10 M),DIPGX9 [42],-5.87
same,EC50 (log10 M),HGGX39 [6],-5.65
same,EC50 (log10 M),HGGX42 [7],-6.39
same,EC50 (log10 M),SUDIPGIV [9],-5.75
same,EC50 (log10 M),SUDIPGXIII [10],-6.03
same,EC50 (log10 M),SUDIPGXIX [11],-6.06
same,EC50 (log10 M),SUDIPGXXI [43],-6.73
same,maximal growth inhibition,DIPGX29 [14],55.9%
same,maximal growth inhibition,DIPGX37 [15],53.7%
same,maximal growth inhibition,DIPGX7 [16],32.3%
same,maximal growth inhibition,DIPGX9 [44],27.4%
same,maximal growth inhibition,HGGX39 [19],52.1%
same,maximal growth inhibition,HGGX42 [20],23.2%
same,maximal growth inhibition,SUDIPGIV [22],34%
same,maximal growth inhibition,SUDIPGXIII [23],21%
same,maximal growth inhibition,SUDIPGXIX [24],25.4%
same,maximal growth inhibition,SUDIPGXXI [45],43.4%
same,area under dose-response curve,DIPGX29 [27],119
same,area under dose-response curve,DIPGX37 [28],87.5
same,area under dose-response curve,DIPGX7 [29],35.7
same,area under dose-response curve,DIPGX9 [30],52.8
same,area under dose-response curve,HABS [31],15.3
same,area under dose-response curve,HGGX2 [32],49.3
same,area under dose-response curve,HGGX39 [33],80.7
same,area under dose-response curve,HGGX42 [34],51
same,area under dose-response curve,HGGX6 [35],50.7
same,area under dose-response curve,SUDIPGIV [36],60
same,area under dose-response curve,SUDIPGVI,29
same,area under dose-response curve,SUDIPGXIII [37],38.7
same,area under dose-response curve,SUDIPGXIX [38],42.2
same,area under dose-response curve,SUDIPGXVII [39],37.4
same,area under dose-response curve,SUDIPGXXI [40],119
same,area under dose-response curve,iAstro [41],6.8
CC(=O)Nc1cccc(-n2c(=O)n(C3CC3)c(=O)c3c(Nc4ccc(I)cc4F)n(C)c(=O)c(C)c32)c1 [TRAMETINIB],EC50 (log10 M),DIPGX29 [1],-7.25
same,EC50 (log10 M),DIPGX37 [2],-7.38
same,EC50 (log10 M),DIPGX9 [42],-7.37
same,EC50 (log10 M),HABS [4],-6.03
same,EC50 (log10 M),HGGX39 [6],-5.15
same,EC50 (log10 M),HGGX42 [7],-4.9
same,EC50 (log10 M),SUDIPGIV [9],-6.66
same,EC50 (log10 M),SUDIPGXIII [10],-7.34
same,EC50 (log10 M),SUDIPGXIX [11],-7.25
same,EC50 (log10 M),SUDIPGXVII [12],-6.86
same,EC50 (log10 M),SUDIPGXXI [43],-7.93
same,EC50 (log10 M),iAstro [13],-4.63
same,maximal growth inhibition,DIPGX29 [14],54.2%
same,maximal growth inhibition,DIPGX37 [15],88.3%
same,maximal growth inhibition,DIPGX9 [44],99.2%
same,maximal growth inhibition,HABS [17],78.3%
same,maximal growth inhibition,HGGX39 [19],53.5%
same,maximal growth inhibition,HGGX42 [20],46.1%
same,maximal growth inhibition,SUDIPGIV [22],26.3%
same,maximal growth inhibition,SUDIPGXIII [23],42.5%
same,maximal growth inhibition,SUDIPGXIX [24],106%
same,maximal growth inhibition,SUDIPGXVII [25],47.3%
same,maximal growth inhibition,SUDIPGXXI [45],91.1%
same,maximal growth inhibition,iAstro [26],32.2%
same,area under dose-response curve,DIPGX29 [27],176
same,area under dose-response curve,DIPGX37 [28],299
same,area under dose-response curve,DIPGX7 [29],29.4
same,area under dose-response curve,DIPGX9 [30],334
same,area under dose-response curve,HABS [31],162
same,area under dose-response curve,HGGX2 [32],96.1
same,area under dose-response curve,HGGX39 [33],74.7
same,area under dose-response curve,HGGX42 [34],51.4
same,area under dose-response curve,HGGX6 [35],47.4
same,area under dose-response curve,SUDIPGIV [36],66.9
same,area under dose-response curve,SUDIPGVI,62.1
same,area under dose-response curve,SUDIPGXIII [37],173
same,area under dose-response curve,SUDIPGXIX [38],345
same,area under dose-response curve,SUDIPGXVII [39],135
same,area under dose-response curve,SUDIPGXXI [40],358
same,area under dose-response curve,iAstro [41],19
